Settings: Liquid, Other PVT measurement

CCCCCCCCCCCCCCCC [hexadecane]
mass density [kg/m3]
Settings	10000 kPa	20000 kPa	30000 kPa	40000 kPa	50000 kPa
298.2 K	775.86	782.89	788.75	793.81	799.18
303.2 K	773.66	779.38	785.01	790.38	795.64
313.2 K	764.59	773.09	778.81	784.36	789.46
323.2 K	759.8	766.48	773.19	778.83	784.38
333.2 K	753.38	760.44	767.3	773.53	779.1
348.2 K	744.11	751.32	758.67	765.1	770.98
353.2 K	740.03	748.27	755.72	762.19	768.11
373.2 K	727.81	736.02	744.18	751.02	757.42
393.2 K	713.25	723.64	732.3	739.4	746.41
413.2 K	700.27	711.23	720.49	728.42	735.85
423.2 K	694.3	705.01	714.62	722.88	730.73
433.2 K	687.01	698.74	708.69	717.4	725.14
453.2 K	674.02	686.53	696.77	706.13	714.59
463.2 K	669.34	680.32	690.8	700.49	709.18
473.2 K	660.45	673.95	685.23	695.19	704.05

Reference: the NIST ThermoML archive (doi:10.1021/acs.jced.9b00078)
